Assay [1] has as its target Human α2δ-1 subunit of Cav2.2 calcium channel (Homo sapiens, UniProt P54289). Nature of the assay: Human α2δ-1 subunit of Cav2.2 calcium channel assay ([3H]-Gabapentin binding). How it is done: Human α2δ-1 Subunit of Cav2.2 Calcium Channel Assay
Human α2δ-1 enriched membranes (2.5 μg) were incubated with 15 nM of radiolabeled [3H]-Gabapentin in assay buffer containing Hepes-KOH 10 mM, pH 7.4. NSB (non specific binding) was measured by adding 10 μM pregabalin. After 60 min incubation at 27° C., binding reaction was terminated by filtering through Multiscreen GF/C (Millipore) presoaked in 0.5% polyethyleneimine in Vacuum Manifold Station, followed by 3 washes with ice-cold filtration buffer containing 50 mM Tris-HCl, pH 7.4. Filter plates were dried at 60° C. for 1 hour and 30 μl of scintillation cocktail were added to each well before radioactivity reading. Readings were performed in a Trilux 1450 Microbeta radioactive counter (Perkin Elmer).

Assay [2] has as its target T1, human μ-opioid receptor (Homo sapiens, UniProt P35372).
T1 construct: expressed in transfected cells; host or cells: CHO-K1
Nature of the assay: Human μ-opioid receptor radioligand assay ([3H]-DAMGO). The assay is classed as binding. How it is done: Human μ-Opioid Receptor Radioligand Assay
To investigate binding properties of test compounds to human μ-opioid receptor, transfected CHO-K1 cell membranes and [^3H]-DAMGO (Perkin Elmer, ES-542-C), as the radioligand, were used. The assay was carried out with 20 μg of membrane suspension, 1 nM of [^3H]-DAMGO in either absence or presence of either buffer or 10 μM Naloxone for total and non-specific binding, respectively. Binding buffer contained Tris-HCl 50 mM, MgCl2 5 mM at pH 7.4. Plates were incubated at 27° C. for 60 minutes. After the incubation period, the reaction mix was then transferred to MultiScreen HTS, FC plates (Millipore), filtered and plates were washed 3 times with ice-cold 10 mM Tris-HCL (pH 7.4). Filters were dried and counted at approximately 40% efficiency in a MicroBeta scintillation counter (Perkin-Elmer) using EcoScint liquid scintillation cocktail.

The mark [3] stands for this setting: human α2δ-1 enriched membranes, 15 nM [3H]-Gabapentin, read-out: α2δ-1 binding.
[4] abbreviates: transfected CHO-K1 cell membranes, 1 nM [3H]-DAMGO, read-out: μ binding.

Where two headings read alike, the source gives them in different places.

Sequence of Human α2δ-1 subunit of Cav2.2 calcium channel (P54289 25-1103): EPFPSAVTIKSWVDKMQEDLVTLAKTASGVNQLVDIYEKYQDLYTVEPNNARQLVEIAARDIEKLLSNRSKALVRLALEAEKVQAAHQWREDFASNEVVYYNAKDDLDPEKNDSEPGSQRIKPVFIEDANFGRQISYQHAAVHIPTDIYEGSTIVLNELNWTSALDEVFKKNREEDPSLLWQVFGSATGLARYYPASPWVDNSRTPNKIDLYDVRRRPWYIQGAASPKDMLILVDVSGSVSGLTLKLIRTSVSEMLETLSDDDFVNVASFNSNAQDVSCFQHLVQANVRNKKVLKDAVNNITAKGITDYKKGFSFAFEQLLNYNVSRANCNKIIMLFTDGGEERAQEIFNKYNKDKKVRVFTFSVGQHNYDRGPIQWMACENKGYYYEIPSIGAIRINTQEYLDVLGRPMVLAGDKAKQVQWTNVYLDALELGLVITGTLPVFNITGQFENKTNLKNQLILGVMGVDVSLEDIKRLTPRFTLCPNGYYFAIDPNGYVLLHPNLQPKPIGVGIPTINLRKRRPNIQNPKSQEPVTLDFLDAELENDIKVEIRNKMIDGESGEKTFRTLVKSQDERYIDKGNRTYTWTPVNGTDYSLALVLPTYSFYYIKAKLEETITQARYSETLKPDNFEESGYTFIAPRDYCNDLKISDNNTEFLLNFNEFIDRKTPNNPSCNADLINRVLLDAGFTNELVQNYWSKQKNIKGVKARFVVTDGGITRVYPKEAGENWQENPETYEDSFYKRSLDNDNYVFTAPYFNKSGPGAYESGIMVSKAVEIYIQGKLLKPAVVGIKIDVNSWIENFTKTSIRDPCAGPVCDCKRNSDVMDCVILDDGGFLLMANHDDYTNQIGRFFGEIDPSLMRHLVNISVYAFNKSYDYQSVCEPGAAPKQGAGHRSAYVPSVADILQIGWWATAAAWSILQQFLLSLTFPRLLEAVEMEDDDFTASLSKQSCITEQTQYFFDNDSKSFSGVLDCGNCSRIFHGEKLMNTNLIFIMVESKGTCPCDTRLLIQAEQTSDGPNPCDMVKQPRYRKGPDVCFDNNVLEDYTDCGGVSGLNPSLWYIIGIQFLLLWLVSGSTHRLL
T1 sequence (P35372 whole entry): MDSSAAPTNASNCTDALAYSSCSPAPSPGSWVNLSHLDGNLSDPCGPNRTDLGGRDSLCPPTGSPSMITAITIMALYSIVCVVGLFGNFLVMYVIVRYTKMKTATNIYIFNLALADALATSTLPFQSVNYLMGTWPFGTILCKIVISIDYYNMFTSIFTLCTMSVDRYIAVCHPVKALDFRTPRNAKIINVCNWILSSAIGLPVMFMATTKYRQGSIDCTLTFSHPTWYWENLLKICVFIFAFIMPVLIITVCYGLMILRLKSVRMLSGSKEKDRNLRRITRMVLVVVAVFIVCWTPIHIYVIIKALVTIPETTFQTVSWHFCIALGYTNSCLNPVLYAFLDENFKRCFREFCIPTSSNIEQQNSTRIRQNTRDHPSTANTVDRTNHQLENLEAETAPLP

For the compound `CC(N)c1cc(Cc2ccc(O)c(F)c2)n(-c2ccc(Cl)cc2Cl)n1` (stereo in doubt) [Example 63, (S)-4-{[3-(1-Aminoethyl)-1-(2,4-dichlorophenyl)-1H-pyrazol-5-yl]methyl}-2-fluorophenol], the Ki in assay [1] was greater than 5000 nM; in assay [2] it was greater than 500 nM.
On to `CC(N)c1cc(Cc2ccc(O)c(F)c2)n(-c2ccc(Cl)cc2Cl)n1` (stereo in doubt) [Example 64, (R)-4-{[3-(1-Aminoethyl)-1-(2,4-dichlorophenyl)-1H-pyrazol-5-yl]methyl}-2-fluorophenol], for which the Ki is greater than 5000 nM in assay [1] and greater than 500 nM in assay [2].
The like results for `COc1ccc(Cc2cc(CN)nn2-c2ccc(Cl)cc2Cl)cc1` [Example 1, [1-(2,4-Dichlorophenyl)-5-(4-methoxybenzyl)-1H-pyrazol-3yl]methanamine] were, in that order, less than 500 nM and 100 to 500 nM.
On to `COc1ccc(Cc2cc(CN)nn2-c2ccccc2Cl)cc1` [Example 2, [1-(2-Chlorophenyl)-5-(4-methoxybenzyl)-1H-pyrazol-3-yl]methanamine], for which the Ki in assay [1] (setting [3]) is 500 to 3000 nM; in assay [2] (setting [4]), greater than 500 nM.
For `COc1ccc(Cc2cc(CN)nn2-c2ccc(Cl)cc2)cc1` [Example 3, [1-(4-Chlorophenyl)-5-(4-methoxybenzyl)-1H-pyrazol-3-yl]methanamine], the results for the Ki in assay [1] (setting [3]) and in assay [2] (setting [4]) were 3000 to 5000 nM and greater than 500 nM, respectively.
On to `COc1ccc(Cc2cc(CN)nn2-c2ccc(OC)cc2Cl)cc1` [Example 4, [1-(2-Chloro-4-methoxyphenyl)-5-(4-methoxybenzyl)-1H-pyrazol-3-yl]methanamine], for which the Ki in assay [1] was 500 to 3000 nM; in assay [2] it was 100 to 500 nM.
With `COc1ccc(Cc2cc(CN)nn2-c2ccc(F)cc2Cl)cc1` [Example 5, [1-(2-Chloro-4-fluorophenyl)-5-(4-methoxybenzyl)-1H-pyrazol-3-yl]methanamine], the Ki was 500 to 3000 nM in assay [1] (setting [3]) and greater than 500 nM in assay [2] (setting [4]).
As for `COc1ccc(-n2nc(CN)cc2Cc2ccc(O)cc2)cc1` [Example 6, 4-{[3-(Aminomethyl)-1-(4-methoxyphenyl)-1H-pyrazol-5-yl]methyl}phenol], the results for the Ki in assay [1] (setting [3]) and in assay [2] (setting [4]) were 3000 to 5000 nM and greater than 500 nM, respectively.
`CCOc1ccc(-n2nc(CN)cc2Cc2ccc(O)cc2)c(Cl)c1` [Example 7, 4-{[3-(Aminomethyl)-1-(2-chloro-4-ethoxyphenyl)-1H-pyrazol-5-yl]methyl}phenol]: the Ki in assay [1] is 500 to 3000 nM; in assay [2] it was less than 100 nM.
For `COc1cccc(Cc2cc(CN)nn2-c2ccc(Cl)cc2Cl)c1` [Example 8, [1-(2,4-Dichlorophenyl)-5-(3-methoxybenzyl)-1H-pyrazol-3-yl]methanamine], the results for the Ki in assay [1] (setting [3]) and in assay [2] (setting [4]) were 500 to 3000 nM and greater than 500 nM, respectively.
Consider `NCc1cc(Cc2ccccc2)n(-c2ccc(Cl)cc2Cl)n1` [Example 9, [5-Benzyl-1-(2,4-dichlorophenyl)-1H-pyrazol-3-yl]methanamine], for which the figures for the Ki in assay [1] (setting [3]) and in assay [2] (setting [4]) were 500 to 3000 nM and greater than 500 nM, respectively.
The like results for `COc1ccc(-n2nc(CN)cc2Cc2ccccc2)cc1` [Example 10, [5-Benzyl-1-(4-methoxyphenyl)-1H-pyrazol-3-yl]methanamine] were, in that order, 500 to 3000 nM and greater than 500 nM.
Turning to `COc1ccc(Cc2cc(CN)nn2CC(C)C)cc1` [Example 11, [1-Isobutyl-5-(4-methoxybenzyl)-1H-pyrazol-3-yl]methanamine], the Ki in assay [1] (setting [3]) is 500 to 3000 nM; in assay [2] (setting [4]), greater than 500 nM.
Take `COc1ccc(Cc2cc(CN)nn2Cc2ccc(Cl)cc2)cc1` [Example 12, [1-(4-Chlorobenzyl)-5-(4-methoxybenzyl)-1H-pyrazol-3-yl]methanamine]: the Ki in assay [1] (setting [3]) is 500 to 3000 nM; in assay [2] (setting [4]), greater than 500 nM.
As for `COc1ccc(Cc2cc(CN)nn2Cc2ccccc2)cc1` [Example 13, [1-Benzyl-5-(4-methoxybenzyl)-1H-pyrazol-3-yl]methanamine], the Ki in assay [1] (setting [3]) is 500 to 3000 nM; in assay [2] (setting [4]), greater than 500 nM.
For the compound `COc1ccc(Cc2cc(CN)nn2Cc2ccccc2Cl)cc1` [Example 14, [1-(2-Chlorobenzyl)-5-(4-methoxybenzyl)-1H-pyrazol-3-yl]methanamine], the figures for the Ki in assay [1] (setting [3]) and in assay [2] (setting [4]) were 500 to 3000 nM and greater than 500 nM, respectively.
The like results for `COc1ccc(Cc2cc(CN)nn2Cc2ccc(Cl)cc2Cl)cc1` [Example 15, [1-(2,4-Dichlorobenzyl)-5-(4-methoxybenzyl)-1H-pyrazol-3-yl]methanamine] were, in that order, 500 to 3000 nM and greater than 500 nM.
The like results for `COc1ccc(Cc2cc(CN)nn2C(C)c2ccccc2)cc1` (stereo not drawn) [Example 16, [5-(4-Methoxybenzyl)-1-(1-phenylethyl)-1H-pyrazol-3-yl]methanamine] were, in that order, 500 to 3000 nM and greater than 500 nM.
Regarding `COc1ccc(Oc2cc(CN)nn2-c2ccc(Cl)cc2Cl)cc1` [Example 17, [1-(2,4-Dichlorophenyl)-5-(4-methoxyphenoxy)-1H-pyrazol-3-yl]methanamine], the values for the Ki in assay [1] and in assay [2] were 3000 to 5000 nM and 100 to 500 nM, respectively.
As to `CS(=O)(=O)Nc1ccc(Oc2cc(CN)nn2-c2ccc(Cl)cc2Cl)cc1` [Example 18, N-(4-{[3-(Aminomethyl)-1-(2,4-dichlorophenyl)-1H-pyrazol-5-yl]oxy}phenyl)methanesulfonamide], the Ki was greater than 5000 nM in assay [1] (setting [3]) and greater than 500 nM in assay [2] (setting [4]).
In the same order, the values of `COc1ccc(Cc2cc(CN)nn2-c2ccccc2)cc1` [Example 19, [5-(4-Methoxybenzyl)-1-phenyl-1H-pyrazol-3-yl]methanamine] are 500 to 3000 nM and greater than 500 nM.
The like results for `COc1ccc(Cc2cc(CN)nn2-c2ccccn2)cc1` [Example 20, [5-(4-Methoxybenzyl)-1-(pyridin-2-yl)-1H-pyrazol-3-yl]methanamine] were, in that order, 3000 to 5000 nM and greater than 500 nM.
The like results for `COc1ccc(Cc2cc(CN(C)C)nn2-c2ccc(Cl)cc2Cl)cc1` [Example 21, 1-[1-(2,4-Dichlorophenyl)-5-(4-methoxybenzyl)-1H-pyrazol-3-yl]-N,N-dimethylmethanamine] were, in that order, 3000 to 5000 nM and greater than 500 nM.
As for `CNCc1cc(Cc2ccc(OC)cc2)n(-c2ccc(Cl)cc2Cl)n1` [Example 22, 1-[1-{2,4-Dichlorophenyl)-5-(4-methoxybenzyl)-1H-pyrazol-3-yl]-N-methylmethanamine], the Ki is 3000 to 5000 nM in assay [1] (setting [3]) and greater than 500 nM in assay [2] (setting [4]).
In the same order, the values of `CCNCc1cc(Cc2ccc(OC)cc2)n(CC(C)C)n1` [Example 23, N-{[1-Isobutyl-5-(4-methoxybenzyl)-1H-pyrazol-3-yl]methyl}ethanamine] are 500 to 3000 nM and greater than 500 nM.
`COc1ccc(Cc2cc(C(C)N)nn2-c2ccc(Cl)cc2Cl)cc1` (stereo not drawn) [Example 24, 1-[1-(2,4-Dichlorophenyl)-5-(4-methoxybenzyl)-1H-pyrazol-3-yl]ethanamine]: the Ki was in the range of 500 to 3000 nM in assay [1] and 100 to 500 nM in assay [2].
Consider `CCOc1ccc(Cc2cc(C(C)N)nn2-c2ccc(Cl)cc2Cl)cc1` (stereo not drawn) [Example 25, 1-[1-(2,4-Dichlorophenyl)-5-(4-ethoxybenzyl)-1H-pyrazol-3-yl]ethanamine], for which the Ki in assay [1] (setting [3]) is 500 to 3000 nM; in assay [2] (setting [4]), greater than 500 nM.
The like results for `CC(N)c1cc(Cc2ccc(NS(C)(=O)=O)cc2)n(-c2ccc(Cl)cc2Cl)n1` (stereo not drawn) [Example 26, N-(4-{[3-(1-Aminoethyl)-1-(2,4-dichlorophenyl)-1H-pyrazol-5-yl]methyl}phenyl)methanesulfonamide] were, in that order, 500 to 3000 nM and greater than 500 nM.
For `COc1ccc(-n2nc(C(C)N)cc2Cc2ccc(O)cc2)c(Cl)c1` (stereo not drawn) [Example 27, 4-{[3-(1-Aminoethyl)-1-(2-chloro-4-methoxyphenyl)-1H-pyrazol-5-yl]methyl}phenol], the Ki in assay [1] is less than 500 nM; in assay [2] it was less than 100 nM.
`COc1ccc(Cl)c(-n2nc(C(C)N)cc2Cc2ccc(O)cc2)c1` (stereo not drawn) [Example 28, 4-{[3-(1-Aminoethyl)-1-(2-chloro-5-methoxyphenyl)-1H-pyrazol-5-yl]methyl}phenol]: the Ki is greater than 5000 nM in assay [1] (setting [3]) and greater than 500 nM in assay [2] (setting [4]).
In the same order, the values of `COc1cc(Cl)ccc1-n1nc(C(C)N)cc1Cc1ccc(O)cc1` (stereo not drawn) [Example 29, 4-{[3-(1-Aminoethyl)-1-(4-chloro-2-methoxyphenyl)-1H-pyrazol-5-yl]methyl}phenol] are greater than 5000 nM and greater than 500 nM.
Consider `COc1ccc(Cc2cc(C(C)N)nn2-c2ccc(Cl)cc2Cl)cc1F` (stereo not drawn) [Example 30], for which the Ki in assay [1] (setting [3]) is greater than 5000 nM; in assay [2] (setting [4]) it was greater than 500 nM.
In the same order, the values of `CCCC(N)c1cc(Cc2ccc(OC)c(F)c2)n(-c2ccc(Cl)cc2Cl)n1` (stereo not drawn) [Example 31, 1-[1-(2,4-Dichlorophenyl)-5-(3-fluoro-4-methoxybenzyl)-1H-pyrazol-3-yl]butan-1-amine] are greater than 5000 nM and greater than 500 nM.

(Values after US20200002283A1, “PYRAZOLE DERIVATIVES HAVING ACTIVITY AGAINST PAIN” (priority 2016, published 2020).)
